Molecular target: T1, Human TLR7 (Homo sapiens, UniProt Q9NYK1)
T1 construct: expressed in transfected cells; host or cells: HEK293 (hTLR7/seap-293), stably carrying the TLR7 plasmid and the NF-kB-SEAP reporter plasmid
T1 sequence (Q9NYK1 27-1049): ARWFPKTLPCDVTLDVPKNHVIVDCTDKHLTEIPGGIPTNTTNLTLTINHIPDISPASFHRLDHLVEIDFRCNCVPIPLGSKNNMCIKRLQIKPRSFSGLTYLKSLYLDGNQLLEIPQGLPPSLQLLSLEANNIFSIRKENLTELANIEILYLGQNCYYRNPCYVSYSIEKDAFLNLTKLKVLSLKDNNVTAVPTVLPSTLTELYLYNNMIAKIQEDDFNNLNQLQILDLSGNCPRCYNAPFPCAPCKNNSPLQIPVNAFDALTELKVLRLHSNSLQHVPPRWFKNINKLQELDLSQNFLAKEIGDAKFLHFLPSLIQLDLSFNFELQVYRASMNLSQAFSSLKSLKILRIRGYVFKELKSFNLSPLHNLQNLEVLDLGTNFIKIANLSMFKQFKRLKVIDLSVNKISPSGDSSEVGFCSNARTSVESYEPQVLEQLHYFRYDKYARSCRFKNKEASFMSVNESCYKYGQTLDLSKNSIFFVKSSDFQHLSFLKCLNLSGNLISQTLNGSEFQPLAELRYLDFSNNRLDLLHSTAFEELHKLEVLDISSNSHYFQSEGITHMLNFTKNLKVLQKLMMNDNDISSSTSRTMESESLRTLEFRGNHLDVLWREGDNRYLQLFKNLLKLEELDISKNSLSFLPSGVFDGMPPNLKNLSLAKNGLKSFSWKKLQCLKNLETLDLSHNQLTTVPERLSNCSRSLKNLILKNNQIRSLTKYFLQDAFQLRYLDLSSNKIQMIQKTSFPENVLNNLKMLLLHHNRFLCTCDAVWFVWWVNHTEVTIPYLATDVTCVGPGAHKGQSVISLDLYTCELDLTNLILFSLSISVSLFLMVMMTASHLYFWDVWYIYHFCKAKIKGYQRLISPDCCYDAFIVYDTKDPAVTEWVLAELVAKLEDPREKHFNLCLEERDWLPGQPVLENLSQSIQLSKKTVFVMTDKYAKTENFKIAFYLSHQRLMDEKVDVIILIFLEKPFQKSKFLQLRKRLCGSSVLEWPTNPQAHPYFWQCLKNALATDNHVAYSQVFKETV
Experiment: Human TLR7 reporter assay (NF-kB-SEAP) in HEK293 cells
Format: cell-based
Settings: hTLR7/seap-293 HEK293 cells, 20 hours incubation, absorbance 405 nm, read-out: human TLR7 binding activity (EC50)
Procedure: Human TLR7 Reporter Assay
Human TLR7 or rat TLR7 plasmid and reporter plasmid (NF-kB-SEAP) stably-induced HEK293 cells were suspended in DMEM media (10% FBS, 1% NEAA, 10 ug/mL blastocidin S HCl, 100 ug/mL Zeocin), and the suspension was seeded in 90 μl/well on 96 well plate (hTLR^7/seap-293: 20000 cells/well, rTLR7/seap-293: 25000 cells/well).
To the cells seeded on 96 well plate was added in 10 μl/well a test compound wherein DMSO stock solution (2 μl) was hundredfold diluted with medium (200 μl) (final concentration; 1 nM-10 μM, common ratio 3). The mixture was stirred tapping in the side of the plate, and then incubated for 20 hours in CO2 incubator. To the cells stimulated by a test compound was added a substrate for reporter assay (substrate for SEAP, pNPP) by 50 μl/well. 10 minutes after the addition of substrate, a quenching solution (4N NaOH) was added by 50 μl/well, and the enzymatic reaction was quenched. Top seal A was attached on the plate, and absorbance was measured by microplate reader (405 nm).

Compound | EC50 [nM]
CCCCOc1nc(N)c2[nH]c(=O)n(CCNCC(=O)OC)c2n1 [Example 1, Methyl N-[2-(6-amino-2-butoxy-7,8-dihydro-8-oxo-9H-purin-9-yl)-ethyl]glycinate] | 290
CCCCOc1nc(N)c2[nH]c(=O)n(CCN[C@@H](CC(=O)OC)C(=O)OC)c2n1 [Example 6, Dimethyl N-[2-(6-amino-2-butoxy-8-oxo-7,8-dihydro-9H-purin-9-yl)ethyl]-L-aspartate] | 881
CCCCOc1nc(N)c2[nH]c(=O)n(CCN[C@@H](CCCCN)C(=O)OC)c2n1 [Example 7, Methyl N^2-[2-(6-amino-2-butoxy-8-oxo-7,8-dihydro-9H-purin-9-yl)ethyl]-L-lysinate] | 1710

Reference: patent US20090099216A1, “NOVEL ADENINE COMPOUND” (priority 2005, published 2009)
